Results reported in PubChem BioAssay (NCI).
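Exposure lasted 48 hours, with cells grown in 96-well plates and compounds tested at five concentrations. The concentration for full growth arrest is given as TGI.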

How the values were obtained:
Assay in all cases: NCI tumour cell line growth inhibition, 48 h
786-0 renal = test system: 786-0 renal
A498 renal = test system: A498 renal
A549 NSCLC = test system: A549 NSCLC
ACHN renal = test system: ACHN renal
BT-549 breast = test system: BT-549 breast
CAKI-1 renal = test system: CAKI-1 renal
COLO 205 colon = test system: COLO 205 colon
DU-145 prostate = test system: DU-145 prostate
EKVX NSCLC = test system: EKVX NSCLC
HCC-2998 colon = test system: HCC-2998 colon
HCT-116 colon = test system: HCT-116 colon
HCT-15 colon = test system: HCT-15 colon
HOP-62 NSCLC = test system: HOP-62 NSCLC
HT29 colon = test system: HT29 colon
IGROV1 ovarian = test system: IGROV1 ovarian
K-562 leukemia = test system: K-562 leukemia
KM12 colon = test system: KM12 colon
LOX IMVI melanoma = test system: LOX IMVI melanoma
M14 melanoma = test system: M14 melanoma
MALME-3M melanoma = test system: MALME-3M melanoma
MCF7 breast = test system: MCF7 breast
MDA-MB-231 breast = test system: MDA-MB-231 breast
MDA-MB-435 = test system: MDA-MB-435
MDA-N = test system: MDA-N
MOLT-4 leukemia = test system: MOLT-4 leukemia
NCI-H226 lung = test system: NCI-H226 lung
NCI-H23 lung = test system: NCI-H23 lung
NCI-H460 lung = test system: NCI-H460 lung
NCI-H522 lung = test system: NCI-H522 lung
NCI/ADR-RES ovarian = test system: NCI/ADR-RES ovarian
OVCAR-4 ovarian = test system: OVCAR-4 ovarian
OVCAR-5 ovarian = test system: OVCAR-5 ovarian
OVCAR-8 ovarian = test system: OVCAR-8 ovarian
PC-3 prostate = test system: PC-3 prostate
RPMI-8226 leukemia = test system: RPMI-8226 leukemia
RXF 393 renal = test system: RXF 393 renal
SF-268 CNS = test system: SF-268 CNS
SF-295 CNS = test system: SF-295 CNS
SF-539 CNS = test system: SF-539 CNS
SK-MEL-2 melanoma = test system: SK-MEL-2 melanoma
SK-MEL-28 melanoma = test system: SK-MEL-28 melanoma
SK-MEL-5 melanoma = test system: SK-MEL-5 melanoma
SK-OV-3 ovarian = test system: SK-OV-3 ovarian
SN12C renal = test system: SN12C renal
SNB-19 CNS = test system: SNB-19 CNS
SNB-75 CNS = test system: SNB-75 CNS
SR leukemia = test system: SR leukemia
SW-620 colon = test system: SW-620 colon
T-47D breast = test system: T-47D breast
TK-10 renal = test system: TK-10 renal
U251 CNS = test system: U251 CNS
UACC-257 melanoma = test system: UACC-257 melanoma
UACC-62 melanoma = test system: UACC-62 melanoma
UO-31 renal = test system: UO-31 renal
HL-60(TB) leukemia = test system: HL-60(TB) leukemia
HOP-92 NSCLC = test system: HOP-92 NSCLC
OVCAR-3 ovarian = test system: OVCAR-3 ovarian

In the case of `C[C@@H]1CC[C@@H]2[C@@H](C1)O[C@@H]([C@H](C)OCc1ccccc1)SC2(C)C`, the TGI (786-0 renal) is reported as 62.1 µM, the TGI (A498 renal) is reported as 39.3 µM and the TGI (A549 NSCLC) is reported as greater than 100 µM. For the same compound, the TGI (ACHN renal) was 37.2 µM, the TGI (BT-549 breast) was greater than 100 µM and the TGI (CAKI-1 renal) was greater than 100 µM. For the same compound, the TGI (COLO 205 colon) was 34 µM, the TGI (DU-145 prostate) was greater than 100 µM and the TGI (EKVX NSCLC) was greater than 100 µM. The TGI (HCC-2998 colon) was 31.8 µM, the TGI (HCT-116 colon) was 29.3 µM and the TGI (HCT-15 colon) was 82.7 µM. It also gave a TGI (HOP-62 NSCLC) greater than 100 µM, a TGI (HT29 colon) greater than 100 µM and a TGI (IGROV1 ovarian) greater than 100 µM. For the same compound, the TGI (K-562 leukemia) was 39.5 µM, the TGI (KM12 colon) was 36.1 µM and the TGI (LOX IMVI melanoma) was 32.8 µM. For the same compound, the TGI (M14 melanoma) was 47.1 µM, the TGI (MALME-3M melanoma) was 53.1 µM and the TGI (MCF7 breast) was 31.5 µM. The TGI (MDA-MB-231 breast) was 40.1 µM, the TGI (MDA-MB-435) was greater than 100 µM and the TGI (MDA-N) was 65.5 µM. The TGI (MOLT-4 leukemia) was 34.9 µM, the TGI (NCI-H226 lung) was 33 µM and the TGI (NCI-H23 lung) was greater than 100 µM. It also gave a TGI (NCI-H460 lung) of 53.5 µM, a TGI (NCI-H522 lung) of 40.2 µM and a TGI (NCI/ADR-RES ovarian) of 75.5 µM. For the same compound, the TGI (OVCAR-4 ovarian) was greater than 100 µM, the TGI (OVCAR-5 ovarian) was 31.7 µM and the TGI (OVCAR-8 ovarian) was greater than 100 µM. The TGI (PC-3 prostate) was greater than 100 µM, the TGI (RPMI-8226 leukemia) was 35.1 µM and the TGI (RXF 393 renal) was 33.4 µM. For the same compound, the TGI (SF-268 CNS) was greater than 100 µM, the TGI (SF-295 CNS) was 34.5 µM and the TGI (SF-539 CNS) was greater than 100 µM. It also gave a TGI (SK-MEL-2 melanoma) of 33 µM, a TGI (SK-MEL-28 melanoma) of 88.1 µM and a TGI (SK-MEL-5 melanoma) of 33 µM. For the same compound, the TGI (SK-OV-3 ovarian) was greater than 100 µM, the TGI (SN12C renal) was 42.4 µM and the TGI (SNB-19 CNS) was 36.8 µM. The TGI (SNB-75 CNS) was 49.2 µM, the TGI (SR leukemia) was 35.6 µM and the TGI (SW-620 colon) was 36.3 µM. For the same compound, the TGI (T-47D breast) was 32.9 µM, the TGI (TK-10 renal) was greater than 100 µM and the TGI (U251 CNS) was 33.5 µM. The TGI (UACC-257 melanoma) was 73.3 µM, the TGI (UACC-62 melanoma) was greater than 100 µM and the TGI (UO-31 renal) was 29.6 µM.

For `BrC(c1cccc2ccccc12)c1cccc2ccccc12`, the TGI (786-0 renal) was 28.2 µM, the TGI (A498 renal) was 31.4 µM and the TGI (A549 NSCLC) was greater than 100 µM. For the same compound, the TGI (ACHN renal) was 52.3 µM, the TGI (BT-549 breast) was 39.3 µM and the TGI (CAKI-1 renal) was 50.1 µM. The TGI (DU-145 prostate) was 26.4 µM, the TGI (EKVX NSCLC) was 56.4 µM and the TGI (HCT-116 colon) was 27.8 µM. It also gave a TGI (HCT-15 colon) of 42.5 µM, a TGI (HL-60(TB) leukemia) of 51.4 µM and a TGI (HOP-62 NSCLC) of 27.1 µM. It also gave a TGI (HOP-92 NSCLC) of 28.8 µM, a TGI (HT29 colon) of 35.8 µM and a TGI (IGROV1 ovarian) of 31.8 µM. For the same compound, the TGI (K-562 leukemia) was greater than 100 µM, the TGI (KM12 colon) was 28.8 µM and the TGI (LOX IMVI melanoma) was 30.1 µM. It also gave a TGI (M14 melanoma) of 37.6 µM, a TGI (MALME-3M melanoma) of 21.1 µM and a TGI (MDA-MB-231 breast) of 28 µM. It also gave a TGI (MDA-MB-435) of 21.2 µM, a TGI (MDA-N) of 32.6 µM and a TGI (MOLT-4 leukemia) greater than 100 µM. The TGI (NCI-H226 lung) was 33.5 µM, the TGI (NCI-H23 lung) was 43 µM and the TGI (NCI-H460 lung) was 30.4 µM. For the same compound, the TGI (NCI-H522 lung) was 32.3 µM, the TGI (NCI/ADR-RES ovarian) was 44.2 µM and the TGI (OVCAR-3 ovarian) was 24.2 µM. It also gave a TGI (OVCAR-4 ovarian) of 36.1 µM, a TGI (OVCAR-5 ovarian) of 84.9 µM and a TGI (OVCAR-8 ovarian) of 35.1 µM. For the same compound, the TGI (PC-3 prostate) was 54.1 µM, the TGI (RPMI-8226 leukemia) was greater than 100 µM and the TGI (RXF 393 renal) was 27.9 µM. It also gave a TGI (SF-268 CNS) of 26.6 µM, a TGI (SF-295 CNS) of 44.7 µM and a TGI (SK-MEL-2 melanoma) of 30.1 µM. The TGI (SK-MEL-28 melanoma) was 44.6 µM, the TGI (SK-MEL-5 melanoma) was 31.4 µM and the TGI (SN12C renal) was 27.4 µM. The TGI (SNB-19 CNS) was greater than 100 µM, the TGI (SNB-75 CNS) was 29.1 µM and the TGI (SR leukemia) was greater than 100 µM. For the same compound, the TGI (SW-620 colon) was 45.5 µM, the TGI (T-47D breast) was greater than 100 µM and the TGI (TK-10 renal) was greater than 100 µM. The TGI (U251 CNS) was 30.6 µM, the TGI (UACC-257 melanoma) was 53.3 µM and the TGI (UACC-62 melanoma) was 27.7 µM. For the same compound, the TGI (UO-31 renal) was greater than 100 µM.
